The values that follow come from PubChem BioAssay (NCI).

Some test systems named below: CAKI-1 renal; DU-145 prostate; HS 578T breast; K-562 leukemia; M14 melanoma; MCF7 breast; NCI-H23 lung; NCI-H460 lung; NCI/ADR-RES ovarian; SF-539 CNS; SK-MEL-28 melanoma; SNB-19 CNS; TK-10 renal.
Holding throughout (assay): NCI anticancer screen, dose series, 48 h

Structures are written as SMILES. Where “and” joins values, the source holds several entries; their conditions need not be identical. Identical values can stand only once.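 Cells were grown in 96-well plates and exposed to each compound for 48 hours at five concentrations; endpoints were interpolated linearly between bracketing concentrations, or set to the highest concentration if not reached. The concentration for 50% growth inhibition is given as GI50. TGI is the concentration that stops growth completely.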

`Cc1ccc(OCC2OC(n3cnc4c(Cl)ncnc43)CC2Oc2ccc(C)cc2)cc1` (centres undefined): the TGI in the assay with CAKI-1 renal is 4.18 µM and 5.78 µM; with DU-145 prostate it was 3.65 µM and 28.1 µM; with HS 578T breast, > 59.2 µM and 27.5 µM; in the assay on K-562 leukemia, > 23.9 µM and 61.8 µM; in the assay with M14 melanoma it was 6.61 µM and 22.6 µM; in the assay on MCF7 breast it was 12.6 µM and > 58.8 µM. In addition, the TGI in the assay on NCI-H23 lung is 7.99 µM and 27.8 µM; in the assay with NCI-H460 lung, 18.3 µM and > 48.5 µM; in the assay on NCI/ADR-RES ovarian it was 36.5 µM and 40.8 µM; with SF-539 CNS, 50.6 µM and 36.1 µM; with SK-MEL-28 melanoma, 14.9 µM; with SNB-19 CNS it was 6.86 µM and 33.4 µM. The TGI in the assay on TK-10 renal is > 100 µM. The GI50 with DU-145 prostate is 1.96 µM and 13.3 µM; in the assay on M14 melanoma, 2.75 µM and 7.3 µM; in the assay with MCF7 breast, 4.44 µM and 21 µM; in the assay on NCI-H23 lung it was 3.03 µM and 11.9 µM; in the assay on NCI-H460 lung, 3.71 µM and 13.4 µM; in the assay with SNB-19 CNS, 2.8 µM and 17 µM.

As for `CSCCCNC(=O)c1csc(-c2csc(CCNC(=O)CNC(=O)CNC(=O)CNC(=O)OC(C)(C)C)n2)n1`, the TGI in the assay on CAKI-1 renal, in the assay on DU-145 prostate, in the assay with HS 578T breast, in the assay with K-562 leukemia, with M14 melanoma and with MCF7 breast was > 100 µM each time. The TGI in the assay on NCI-H23 lung, with NCI-H460 lung, with NCI/ADR-RES ovarian, with SF-539 CNS, in the assay on SK-MEL-28 melanoma and with SNB-19 CNS was > 100 µM throughout. Also, in the assay with TK-10 renal, the TGI was > 100 µM.

Regarding `COc1cc(/C=N\NC(=O)C[N+](C)(C)C)cc(OC)c1OC`, the TGI in the assay on CAKI-1 renal, in the assay on DU-145 prostate, in the assay on HS 578T breast, in the assay on K-562 leukemia, in the assay with M14 melanoma and in the assay on MCF7 breast was > 10 µM each time. The TGI with NCI-H23 lung, in the assay with NCI/ADR-RES ovarian, with SF-539 CNS, with SK-MEL-28 melanoma, in the assay on SNB-19 CNS and in the assay on TK-10 renal was > 10 µM in each case.

Regarding `Cc1ccnc(NC(=S)Nc2cccc(Cl)c2)c1`, the TGI in the assay on CAKI-1 renal, with DU-145 prostate, with HS 578T breast, in the assay on K-562 leukemia, with M14 melanoma and with MCF7 breast was > 100 µM each time. Moreover, the TGI in the assay with NCI-H460 lung, in the assay with NCI/ADR-RES ovarian, in the assay on SF-539 CNS, in the assay with SK-MEL-28 melanoma, in the assay on SNB-19 CNS and with TK-10 renal was > 100 µM throughout.

With `N#Cc1c(Nc2nc3ccccc3s2)c2ccccc2n2c1nc1ccccc12`, the TGI in the assay with CAKI-1 renal, in the assay with DU-145 prostate, in the assay with HS 578T breast, in the assay on M14 melanoma, with MCF7 breast and in the assay on NCI-H23 lung was > 100 µM in each case. Also, the TGI with NCI-H460 lung, in the assay with NCI/ADR-RES ovarian, with SF-539 CNS, in the assay on SK-MEL-28 melanoma, in the assay on SNB-19 CNS and in the assay on TK-10 renal was > 100 µM in each case.

With `CCCCCn1c(=O)c2c(=O)[nH][nH]c2c2ccccc21`, the TGI in the assay on CAKI-1 renal, with DU-145 prostate, in the assay on HS 578T breast, with K-562 leukemia, in the assay on MCF7 breast and with NCI-H23 lung was > 100 µM throughout. The TGI with NCI-H460 lung, in the assay with NCI/ADR-RES ovarian, in the assay with SF-539 CNS, in the assay with SK-MEL-28 melanoma and in the assay on TK-10 renal was > 100 µM in each case.

`CC1(C)CC2=C(Sc3ccccc3N2)C(=O)C1C(=O)C(=O)Nc1cc(Cl)ccc1Cl` (centres undefined): the TGI in the assay with CAKI-1 renal, in the assay on DU-145 prostate, in the assay with HS 578T breast, in the assay with K-562 leukemia, in the assay with M14 melanoma and with MCF7 breast was > 100 µM each time. Moreover, the TGI is > 100 µM in the assay on NCI-H23 lung; 28.1 µM in the assay on NCI-H460 lung; > 100 µM with NCI/ADR-RES ovarian; > 100 µM in the assay on SF-539 CNS; > 100 µM in the assay on SK-MEL-28 melanoma; > 100 µM in the assay with SNB-19 CNS.

On to `Cc1cc(C)c2c(=N)c3ccccc3n(CCCCCCO)c2n1`, for which the TGI in the assay on CAKI-1 renal was determined as 8.31 µM; in the assay on DU-145 prostate it was 25.3 µM; in the assay with HS 578T breast, 8.37 µM; in the assay on M14 melanoma, 16.6 µM; in the assay on MCF7 breast it was 8.56 µM; in the assay on NCI-H23 lung, 6.69 µM. For the same molecule, the TGI in the assay with NCI-H460 lung was found to be 3.62 µM; in the assay on NCI/ADR-RES ovarian it was 8.38 µM; with SF-539 CNS, 9.48 µM; in the assay with SK-MEL-28 melanoma, 33 µM; in the assay with SNB-19 CNS it was 18.9 µM; in the assay on TK-10 renal, 17.9 µM.

As to `CC1(C)CCCCCCCCCC(C)(CCCCCCCCCCCCO)C1=O` (centres undefined), the TGI came out at 41.5 µM with CAKI-1 renal; 32 µM in the assay on DU-145 prostate; 38 µM in the assay with HS 578T breast; 54.3 µM with K-562 leukemia; 30.5 µM in the assay on MCF7 breast; 33.7 µM in the assay with NCI-H23 lung. Besides, the TGI came out at 33.4 µM in the assay with NCI-H460 lung; 32.6 µM in the assay with NCI/ADR-RES ovarian; 32.5 µM in the assay on SF-539 CNS; 32.6 µM with SK-MEL-28 melanoma; 26.1 µM with SNB-19 CNS; 31.6 µM with TK-10 renal.

As to `OC(CCN1CCN(CCOC(c2ccccc2)c2ccccc2)CC1)c1ccc(Br)cc1` (centres undefined), the TGI in the assay on CAKI-1 renal worked out at 26.9 µM; in the assay with DU-145 prostate, 32.4 µM; in the assay on HS 578T breast, 42.8 µM; in the assay on M14 melanoma it was 11.2 µM; with MCF7 breast, 31.8 µM; in the assay on NCI-H23 lung it was 28 µM. For the same molecule, the TGI with NCI-H460 lung was 26 µM; in the assay on NCI/ADR-RES ovarian it was 21.9 µM; in the assay with SF-539 CNS, 27.6 µM; in the assay with SK-MEL-28 melanoma, 22.8 µM; in the assay on SNB-19 CNS it was 30.3 µM; in the assay on TK-10 renal it was 26.9 µM.

On to `ONC1=Nc2ccccc2OCc2cc(Br)c(Br)cc2COc2ccccc2N=C1NO`, for which the TGI in the assay on CAKI-1 renal was 29.3 µM; with DU-145 prostate, 29.3 µM; in the assay with HS 578T breast, > 69.8 µM; in the assay on K-562 leukemia, > 44.6 µM; with M14 melanoma it was > 54.2 µM; in the assay with MCF7 breast, > 44.7 µM. In addition, the TGI was 44.5 µM in the assay with NCI-H23 lung; 30.2 µM with NCI-H460 lung; > 53.7 µM in the assay with NCI/ADR-RES ovarian; > 57.5 µM with SK-MEL-28 melanoma; 24.2 µM in the assay on SNB-19 CNS; > 59.6 µM in the assay with TK-10 renal.
